Measurements from patent US7297353B2, “Use of anemonin for treating aseptic inflammations” (priority 2000, dated 2007).
“And” between values parts separate entries of the source, which are not always exact repeats. Identical values can stand only once. “Also recorded” adds a separate entry of the source. Like-named read-outs stand apart in the source and are kept apart here.

Columns and labels:
[1] = test system: IL-10; experiment: Cytokine production from splenocytes, Sac stimulation, IL-10 (ELISA); type: cell-based, murine; conditions: 24 h
Description: (§1) For splenocyte cytokine production assay, 5×10^6 cells per well were inoculated into a 24-well tissue culture plate with ConA (5 mg/L) or Sac (1:10000) stimulation. Different concentrations of Anemonin were added in a final volume of 2 ml. Cells were incubated at 37° C., 5% CO2 for 24 h and supernatants were harvested, IFN-γ, IL-10, IL12 (p40) and IL-2 in supernatants were measured by the sandwich enzyme-linked immunosorbent assay (ELISA) as specified by the manufacturer (BD Bioscience pharmingen, US). Concentrations of the cytokine productions were calculated based on standard curves obtained from serial dilutions of murine cytokines (r IFN-γ, rIL-10, rIL12, rIL-2). As shown in Tables C-3 and C-4, high-dose Anemonin (1-100 μg/ml) inhibited all kinds of cytokine release induced by ConA or Sac.

[2] = test system: T-lymphocytes from the whole spleen of mice; experiment: ConA-induced responsive proliferation of T-lymphocytes ([3H] thymidine); type: cell-based; conditions: for Proliferation of T-lymphocytes ConA stimulation Average of CPM values: ConA at 51 μg/ml, 48 hours
Description: 5.2.1. Mice were sacrificed by removing spondyle, spleen was cut off in a sterile condition and then ground to obtain single cell suspension. After erythrocytes were got rid of the remained cells were diluted to […] with RPMI-1640 culture solution containing 10% fetal bovine serum.
5.2.2. 200 μl solution in total volume (including 100 μl the cell suspension, 50 μl sample and 50 μl ConA or LPS) was dispensed on 96-well plate.
50 μl culture solution containing 10% fetal bovine serum, instead of 50 μl sample, was added as negative control, in which the total volume was also 200 μl.
5.2.3. The cell was cultured at 37° C. and under 5% CO2 in incubator for 48 hours, and [^3H] thymidine (1.9×10^4 Bq) was added to the plate at 25 μl/well 12 hours before the end of culture.
5.2.4. The culture was continued. The plates were then stored at −20° C. in refrigeratory after the culture. The thawed cells were collected to fiberglass membrane (Nitrocellose membrane) with cell collector when detecting. After the addition of Scintillation solution, the quantity of [^3H] thymidine incorporated into DNA of cells was detected by Beta counter (MicroBeta Trilux, PerkinElmer LifeSciences). The proliferation of lymphocytes was indicated by cpm value.
Effect of the medicament on ConA-induced responsive proliferation of T-lymphocytes was examined, said T-lymphocytes were from the whole spleen of mice. ConA at 51 μg/ml final concentration was used as the stimulator to induce responsive proliferation of T-lymphocytes from the whole spleen of ICR homogenous mice (cultured in vitro for 48 hours).

[3] = test system: IFN-γ; experiment: Cytokine production from splenocytes, Sac stimulation, IFN-γ (ELISA); type: cell-based, murine; conditions: 24 h
Description: as §1

[4] = test system: staphylococcus, streptococcus, Bacillus diphtheriae, Mycobacterium tuberculosis, and E. coli; conditions: cited from earlier work
[5] = Stability test for prolonged storage; type: physicochemical; conditions: anemonin in the present medication
Source text: According to preferred embodiments of the present invention, when the extracted anemonin or anemonin extract liquor is mixed with one or more Chinese herbs or chemical pharmaceuticals, the stability of the anemonin is not affected by the combined Chinese herbs, chemical components contained therein or the pharmaceuticals, and the amenonin can still effectively treat various aseptic inflammations.

[6] = test system: murine spleens cells stimulated with ConA; experiment: T-cell proliferation, spleen cells stimulated with ConA ([3H]-thymidine uptake); type: cell-based, ICR mice; conditions: for [^3H]-TDRincorparation(CPM × 10^−3): ConA 5 μg/ml, 48 hrs
Description: (§2) Fresh spleen cells were obtained from ICR mice (male, 7-9 weeks old), 5×10^5 of spleen cells were cultured in 96-well flat plates with […] of RPMI 1640 media containing 10% FBS, 100 U/ml penicillin and 100 μg/ml streptomyin in a humidified, 37° C., 5% CO2 incubator for 48 hrs. The cultures were either unstimulated, or were stimulated with 5 μg/ml of ConA or 10 μg/ml of LPS to induce T cells or B cells proliferative responses respectively. The compounds were added in cultures with indicated concentrations to test their bioactivities. Profileration was assessed in terms of uptake of [^3H]-thymidine during 6-12 hours pulsing with 20 kBq [^3H]-thymidine/well, then the cells were harvested by a Basic 96 harvester, and counted in a 1540 MicroBeta Trilux (PerkinElmer Life Sciences).

[7] = test system: IFN-γ; experiment: Cytokine production from splenocytes, ConA stimulation, IFN-γ (ELISA); type: cell-based, murine; conditions: 24 h
Description: as §1

[8] = In vitro percutaneous penetration velocity of anemonin; type: in vitro ADME; design: steady penetration velocity into derma: unit not given here; conditions: for Js: steady penetration velocity / Q24: cumulative amount of percutaneous penetration medicament per square centimeter for 24 hours / Tlag: time lag: n = 3
[9] = test system: murine spleens cells stimulated with LPS; experiment: B-cell proliferation, spleen cells stimulated with LPS ([3H]-thymidine uptake); type: cell-based, ICR mice; conditions: for [^3H]-TDRincorparation(CPM × 10^−3): LPS 10 μg/ml, 48 hrs
Description: as §2

O=C1C=CC2(CCC23C=CC(=O)O3)O1 (centres unmarked) [Anemonin, anemonin]
IL-10 ([1]; 0.001 μg/ml): 1242 ± 46 pg/mL
IL-10 ([1]; 0.01 μg/ml): 1235 ± 19 pg/mL
IL-10 ([1]; 0.1 μg/ml): 1229 ± 9 pg/mL
IL-10 ([1]; 1 μg/ml): 749 ± 64 pg/mL
IL-10 ([1]; 10 μg/ml): 249 ± 0 pg/mL
IL-10 ([1]; 100 μg/ml): 274 ± 18 pg/mL
Proliferation of T-lymphocytes ConA stimulation Average of CPM values ([2]; 0.001 μg/ml, Table B-4): 15466 CPM
Proliferation of T-lymphocytes ConA stimulation Average of CPM values ([2]; 0.01 μg/ml, Table B-4): 19386 CPM
Proliferation of T-lymphocytes ConA stimulation Average of CPM values ([2]; 0.1 μg/ml, Table B-4): 15284 CPM
Proliferation of T-lymphocytes ConA stimulation Average of CPM values ([2]; 1 μg/ml, Table B-3): 8650 CPM
Proliferation of T-lymphocytes ConA stimulation Average of CPM values ([2]; 1 μg/ml, Table B-4): 8438 CPM
Proliferation of T-lymphocytes ConA stimulation Average of CPM values ([2]; 10 μg/ml, Table B-3): 171 CPM
Proliferation of T-lymphocytes ConA stimulation Average of CPM values ([2]; 10 μg/ml, Table B-4): 46 CPM
Proliferation of T-lymphocytes ConA stimulation Average of CPM values ([2]; 100 μg/ml, Table B-3): 160 CPM
Proliferation of T-lymphocytes ConA stimulation Average of CPM values ([2]; 100 μg/ml, Table B-4): 155 CPM
inhibition at 0.001 µg/mL ([2]; Mus musculus, T-lymphocyte, 0.001 μg/ml, ConA stimulation, Table B-4, read-out: General assess of activity Enhancement/Inhibition): 11%
inhibition at 0.01 µg/mL ([2]; Mus musculus, T-lymphocyte, 0.01 μg/ml, ConA stimulation, Table B-4, read-out: General assess of activity Enhancement/Inhibition): -11%
inhibition at 0.1 µg/mL ([2]; Mus musculus, T-lymphocyte, 0.1 μg/ml, ConA stimulation, Table B-4, read-out: General assess of activity Enhancement/Inhibition): 13%
inhibition at 1 µg/mL ([2]; Mus musculus, T-lymphocyte, 1 μg/ml, ConA stimulation, Table B-3, read-out: General assess of activity Enhancement/Inhibition): 47%
inhibition at 1 µg/mL ([2]; Mus musculus, T-lymphocyte, 1 μg/ml, ConA stimulation, Table B-4, read-out: General assess of activity Enhancement/Inhibition): 52%
inhibition at 10 µg/mL ([2]; Mus musculus, T-lymphocyte, 10 μg/ml, ConA stimulation, Table B-3, read-out: General assess of activity Enhancement/Inhibition): 99%
inhibition at 10 µg/mL ([2]; Mus musculus, T-lymphocyte, 10 μg/ml, ConA stimulation, Table B-4, read-out: General assess of activity Enhancement/Inhibition): 100%
inhibition at 100 µg/mL ([2]; Mus musculus, T-lymphocyte, 100 μg/ml, ConA stimulation, Table B-3, read-out: General assess of activity Enhancement/Inhibition): 99%
inhibition at 100 µg/mL ([2]; Mus musculus, T-lymphocyte, 100 μg/ml, ConA stimulation, Table B-4, read-out: General assess of activity Enhancement/Inhibition): 99%
inhibition of ConA-induced responsive proliferation of lymphocytes ([2]; final concentration range from 0.1 μg/ml to 100 μg/ml): remarkably inhibited; also recorded: sharply inhibited
IFN-γ ([3]; 0.001 μg/ml): 237 ± 3 pg/mL
IFN-γ ([3]; 0.01 μg/ml): 230 ± 23 pg/mL
IFN-γ ([3]; 0.1 μg/ml): 143 ± 0 pg/mL
IFN-γ ([3]; 1 μg/ml): 95 ± 2 pg/mL
IFN-γ ([3]; 10 μg/ml): 98 ± 7 pg/mL
IFN-γ ([3]; 100 μg/ml): 89 ± 2 pg/mL
inhibitory against bacteria [4]: inhibitory
stability on prolonged storage [5]: at least 5 years
[^3H]-TDRincorparation(CPM × 10^−3) ([6]; 0.001 μg/ml): 30.1 ± 1.31 CPM × 10^−3
[^3H]-TDRincorparation(CPM × 10^−3) ([6]; 0.01 μg/ml): 33.2 ± 2.56 CPM × 10^−3
[^3H]-TDRincorparation(CPM × 10^−3) ([6]; 0.1 μg/ml): 30.9 ± 0.78 CPM × 10^−3
[^3H]-TDRincorparation(CPM × 10^−3) ([6]; 1 μg/ml): 21.7 ± 0.53 CPM × 10^−3
[^3H]-TDRincorparation(CPM × 10^−3) ([6]; 10 μg/ml): 0.03 ± 0.01 CPM × 10^−3
[^3H]-TDRincorparation(CPM × 10^−3) ([6]; 100 μg/ml): 0.02 ± 0.01 CPM × 10^−3
T-cell proliferation ([6]; 1-100 μg/ml): significantly inhibited
IFN-γ ([7]; 0.001 μg/ml): 2405 ± 171 pg/mL
IFN-γ ([7]; 0.01 μg/ml): 2651 ± 120 pg/mL
IFN-γ ([7]; 0.1 μg/ml): 2298 ± 4 pg/mL
IFN-γ ([7]; 1 μg/ml): 508 ± 16 pg/mL
IFN-γ ([7]; 10 μg/ml): 94 ± 0 pg/mL
IFN-γ ([7]; 100 μg/ml): 89 ± 3 pg/mL
ER: increased permeation times ([8]; 30% ethanol solution): 2.0
Js: steady penetration velocity ([8]; 30% ethanol solution): 4.65 ± 0.47 μg · cm^−2 · h^−1
Q24: cumulative amount of percutaneous penetration medicament per square centimeter for 24 hours ([8]; 30% ethanol solution): 104.45 ± 12.58 μg · cm^−2
Tlag: time lag ([8]; 30% ethanol solution): 1.09 ± 0.20 h
steady penetration velocity into derma ([8]; 30% of ethanol): 4.65
ER: increased permeation times ([8]; water-saturated solution): 1.0
Js: steady penetration velocity ([8]; water-saturated solution): 2.28 μg · cm^−2 · h^−1 and 2.28 ± 0.39 μg · cm^−2 · h^−1
Q24: cumulative amount of percutaneous penetration medicament per square centimeter for 24 hours ([8]; water-saturated solution): 50.49 ± 6.48 μg · cm^−2
Tlag: time lag ([8]; water-saturated solution): 2.05 ± 0.74 h
[^3H]-TDRincorparation(CPM × 10^−3) ([9]; 0.001 μg/ml): 52.0 ± 2.27 CPM × 10^−3
[^3H]-TDRincorparation(CPM × 10^−3) ([9]; 0.01 μg/ml): 47.2 ± 3.41 CPM × 10^−3
[^3H]-TDRincorparation(CPM × 10^−3) ([9]; 0.1 μg/ml): 47.5 ± 3.60 CPM × 10^−3
[^3H]-TDRincorparation(CPM × 10^−3) ([9]; 1 μg/ml): 34.4 ± 2.41 CPM × 10^−3
[^3H]-TDRincorparation(CPM × 10^−3) ([9]; 10 μg/ml): 0.11 ± 0.15 CPM × 10^−3
[^3H]-TDRincorparation(CPM × 10^−3) ([9]; 100 μg/ml): 0.17 ± 0.26 CPM × 10^−3
B-cell proliferation ([9]; 1-100 μg/ml): significantly inhibited
